What was measured:
Experiment in all cases: cells
ATN-1 = type: functional, cell-based, Homo sapiens; details: Homo sapiens, ATN-1
Description: SANGER: Inhibition of human ATN-1 cell growth in a cell viability assay.

HCC2218 = type: functional, cell-based, Homo sapiens; details: Homo sapiens, HCC2218
Description: SANGER: Inhibition of human HCC2218 cell growth in a cell viability assay.

D-502MG = type: functional, cell-based, Homo sapiens; details: Homo sapiens, D-502MG
Description: SANGER: Inhibition of human D-502MG cell growth in a cell viability assay.

L-428 = type: functional, cell-based, Homo sapiens; details: Homo sapiens, L-428
Description: SANGER: Inhibition of human L-428 cell growth in a cell viability assay.

LB831-BLC = type: functional, cell-based, Homo sapiens; details: Homo sapiens, LB831-BLC
Description: SANGER: Inhibition of human LB831-BLC cell growth in a cell viability assay.

EW-16 = type: functional, cell-based, Homo sapiens; details: Homo sapiens, EW-16
Description: SANGER: Inhibition of human EW-16 cell growth in a cell viability assay.

COLO-829 = type: functional, cell-based, Homo sapiens; details: Homo sapiens, COLO-829
Description: SANGER: Inhibition of human COLO-829 cell growth in a cell viability assay.

SK-MEL-1 = type: functional, cell-based, Homo sapiens; details: Homo sapiens, SK-MEL-1
Description: SANGER: Inhibition of human SK-MEL-1 cell growth in a cell viability assay.

SF-539 = type: functional, cell-based, Homo sapiens; details: Homo sapiens, SF-539
Description: SANGER: Inhibition of human SF539 cell growth in a cell viability assay.

TGBC1TKB = type: functional, cell-based, Homo sapiens; details: Homo sapiens, TGBC1TKB
Description: SANGER: Inhibition of human TGBC1TKB cell growth in a cell viability assay.

COLO-684 = type: functional, cell-based, Homo sapiens; details: Homo sapiens, COLO-684
Description: SANGER: Inhibition of human COLO-684 cell growth in a cell viability assay.

SHP77 = type: functional, cell-based, Homo sapiens, SHP-77; details: Homo sapiens, SHP77
Description: SANGER: Inhibition of human SHP-77 cell growth in a cell viability assay.

HCC2157 = type: functional, cell-based, Homo sapiens; details: Homo sapiens, HCC2157
Description: SANGER: Inhibition of human HCC2157 cell growth in a cell viability assay.

MZ7-mel = type: functional, cell-based, Homo sapiens; details: Homo sapiens, MZ7-mel
Description: SANGER: Inhibition of human MZ7-mel cell growth in a cell viability assay.

LB996-RCC = type: functional, cell-based, Homo sapiens; details: Homo sapiens, LB996-RCC
Description: SANGER: Inhibition of human LB996-RCC cell growth in a cell viability assay.

CAS-1 = type: functional, cell-based, Homo sapiens; details: Homo sapiens, CAS-1
Description: SANGER: Inhibition of human CAS-1 cell growth in a cell viability assay.

KM-H2 = type: functional, cell-based, Homo sapiens; details: Homo sapiens, KM-H2
Description: SANGER: Inhibition of human KM-H2 cell growth in a cell viability assay.

NCI-H1304 = type: functional, cell-based, Homo sapiens; details: Homo sapiens, NCI-H1304
Description: SANGER: Inhibition of human NCI-H1304 cell growth in a cell viability assay.

KU812 cell line = type: functional, cell-based, Homo sapiens; details: Homo sapiens, KU812
Description: SANGER: Inhibition of human KU812 cell growth in a cell viability assay.

697 = type: functional, cell-based, Homo sapiens; details: Homo sapiens
Description: SANGER: Inhibition of human 697 cell growth in a cell viability assay.

SK-UT-1 = type: functional, cell-based, Homo sapiens; details: Homo sapiens, SK-UT-1
Description: SANGER: Inhibition of human SK-UT-1 cell growth in a cell viability assay.

GB-1 = type: functional, cell-based, Homo sapiens; details: Homo sapiens, GB-1
Description: SANGER: Inhibition of human GB-1 cell growth in a cell viability assay.

MFM-223 = type: functional, cell-based, Homo sapiens; details: Homo sapiens, MFM-223
Description: SANGER: Inhibition of human MFM-223 cell growth in a cell viability assay.

LB2241-RCC = type: functional, cell-based, Homo sapiens; details: Homo sapiens, LB2241-RCC
Description: SANGER: Inhibition of human LB2241-RCC cell growth in a cell viability assay.

NCI-H1417 = type: functional, cell-based, Homo sapiens; details: Homo sapiens, NCI-H1417
Description: SANGER: Inhibition of human NCI-H1417 cell growth in a cell viability assay.

KNS-42 = type: functional, cell-based; details: Homo sapiens
Description: SANGER: Inhibition of human KNS-42 cell growth in a cell viability assay.

ES8 = type: functional, cell-based, Homo sapiens; details: Homo sapiens, ES8
Description: SANGER: Inhibition of human ES8 cell growth in a cell viability assay.

RPMI-8866 = type: functional, cell-based, Homo sapiens; details: Homo sapiens, RPMI-8866
Description: SANGER: Inhibition of human RPMI-8866 cell growth in a cell viability assay.

SCC-15 = type: functional, cell-based, Homo sapiens; details: Homo sapiens, SCC-15
Description: SANGER: Inhibition of human SCC-15 cell growth in a cell viability assay.

SK-N-FI = type: functional, cell-based, Homo sapiens; details: Homo sapiens, SK-N-FI
Description: SANGER: Inhibition of human SK-N-FI cell growth in a cell viability assay.

KARPAS-45 = type: functional, cell-based, Homo sapiens; details: Homo sapiens, KARPAS-45
Description: SANGER: Inhibition of human KARPAS-45 cell growth in a cell viability assay.

SW872 = type: functional, cell-based, Homo sapiens; details: Homo sapiens, SW872
Description: SANGER: Inhibition of human SW872 cell growth in a cell viability assay.

KM12 = type: functional, cell-based, Homo sapiens; details: Homo sapiens, KM12
Description: SANGER: Inhibition of human KM12 cell growth in a cell viability assay.

CCRF-CEM = type: functional, cell-based, Homo sapiens; details: Homo sapiens, CCRF-CEM
Description: SANGER: Inhibition of human CCRF-CEM cell growth in a cell viability assay.

J-RT3-T3-5 = type: functional, cell-based, Homo sapiens; details: Homo sapiens, J-RT3-T3-5
Description: SANGER: Inhibition of human J-RT3-T3-5 cell growth in a cell viability assay.

LS-513 = type: functional, cell-based, Homo sapiens; details: Homo sapiens, LS-513
Description: SANGER: Inhibition of human LS-513 cell growth in a cell viability assay.

EOL1 = type: functional, cell-based, Homo sapiens; details: Homo sapiens, EOL1
Description: SANGER: Inhibition of human EoL-1-cell cell growth in a cell viability assay.

NCI-H2171 = type: functional, cell-based, Homo sapiens; details: Homo sapiens, NCI-H2171
Description: SANGER: Inhibition of human NCI-H2171 cell growth in a cell viability assay.

OVCAR-4 = type: functional, cell-based, Homo sapiens; details: Homo sapiens, OVCAR-4
Description: SANGER: Inhibition of human OVCAR-4 cell growth in a cell viability assay.

KARPAS-299 = type: functional, cell-based, Homo sapiens; details: Homo sapiens, KARPAS-299
Description: SANGER: Inhibition of human KARPAS-299 cell growth in a cell viability assay.

SNU1 = type: functional, cell-based, Homo sapiens; details: Homo sapiens, SNU1
Description: SANGER: Inhibition of human NCI-SNU-1 cell growth in a cell viability assay.

DEL = type: functional, cell-based, Homo sapiens; details: Homo sapiens, DEL
Description: SANGER: Inhibition of human DEL cell growth in a cell viability assay.

KGN = type: functional, cell-based, Homo sapiens; details: Homo sapiens, KGN
Description: SANGER: Inhibition of human KGN cell growth in a cell viability assay.

NEC8 = type: functional, cell-based, Homo sapiens; details: Homo sapiens, NEC8
Description: SANGER: Inhibition of human NEC8 cell growth in a cell viability assay.

TE-5 = type: functional, cell-based, Homo sapiens; details: Homo sapiens, TE-5
Description: SANGER: Inhibition of human TE-5 cell growth in a cell viability assay.

Mo = type: functional, cell-based, Homo sapiens; details: Homo sapiens, Mo
Description: SANGER: Inhibition of human Mo-T cell growth in a cell viability assay.

HCE-T = type: functional, cell-based, Homo sapiens; details: Homo sapiens, HCE-T
Description: SANGER: Inhibition of human HCE-T cell growth in a cell viability assay.

SW982 = type: functional, cell-based; details: Homo sapiens
Description: SANGER: Inhibition of human SW982 cell growth in a cell viability assay.

KLE = type: functional, cell-based; details: Homo sapiens
Description: SANGER: Inhibition of human KLE cell growth in a cell viability assay.

SNU-C2B = type: functional, cell-based; details: Homo sapiens
Description: SANGER: Inhibition of human SNU-C2B cell growth in a cell viability assay.

## CC(C)C[C@H](NC(=O)[C@H](Cc1ccccc1)NC(=O)c1cnccn1)B(O)O [BORTEZOMIB]
ATN-1
  IC50: 8.89 nM
HCC2218
  IC50: 19.5 nM
D-502MG
  IC50: 6.37 nM
L-428
  IC50: > 20 nM
LB831-BLC
  IC50: 0.641 nM
EW-16
  IC50: 2.75 nM
COLO-829
  IC50: 0.614 nM
SK-MEL-1
  IC50: > 20 nM
SF-539
  IC50: > 20 nM
TGBC1TKB
  IC50: 1.71 nM
COLO-684
  IC50: 3.66 nM
SHP77
  IC50: > 20 nM
HCC2157
  IC50: > 20 nM
MZ7-mel
  IC50: 1.09 nM
LB996-RCC
  IC50: 3.4 nM
CAS-1
  IC50: 1.37 nM
KM-H2
  IC50: > 20 nM
NCI-H1304
  IC50: > 20 nM
KU812 cell line
  IC50: 2.42 nM
697
  IC50: 1.99 nM
SK-UT-1
  IC50: 0.163 nM
GB-1
  IC50: 1.81 nM
MFM-223
  IC50: 17.9 nM
LB2241-RCC
  IC50: 0.804 nM
NCI-H1417
  IC50: 5.51 nM
KNS-42
  IC50: 0.258 nM
ES8
  IC50: 0.4 nM
RPMI-8866
  IC50: > 20 nM
SCC-15
  IC50: > 20 nM
SK-N-FI
  IC50: > 20 nM
KARPAS-45
  IC50: 3.54 nM
SW872
  IC50: 0.996 nM
KM12
  IC50: 1.27 nM
CCRF-CEM
  IC50: 1.13 nM
J-RT3-T3-5
  IC50: > 20 nM
LS-513
  IC50: 0.739 nM
EOL1
  IC50: 18.3 nM
NCI-H2171
  IC50: > 20 nM
OVCAR-4
  IC50: 0.289 nM
KARPAS-299
  IC50: 3.06 nM
SNU1
  IC50: 13.2 nM
DEL
  IC50: > 20 nM
KGN
  IC50: 2.15 nM
NEC8
  IC50: 3.35 nM
TE-5
  IC50: 0.865 nM
Mo
  IC50: 2.74 nM
HCE-T
  IC50: 0.439 nM

## Nc1ccccc1NC(=O)c1ccc(CNC(=O)OCc2cccnc2)cc1 [ENTINOSTAT]
ATN-1
  IC50: 306 nM
HCC2218
  IC50: 1170 nM
D-502MG
  IC50: > 5000 nM
L-428
  IC50: 2490 nM
LB831-BLC
  IC50: 1840 nM
EW-16
  IC50: 1930 nM
COLO-829
  IC50: 1540 nM
SK-MEL-1
  IC50: > 5000 nM
SF-539
  IC50: 196 nM
TGBC1TKB
  IC50: > 5000 nM
COLO-684
  IC50: > 5000 nM
SHP77
  IC50: 4010 nM
HCC2157
  IC50: 1430 nM
MZ7-mel
  IC50: 561 nM
LB996-RCC
  IC50: 1470 nM
CAS-1
  IC50: > 5000 nM
KM-H2
  IC50: 1570 nM
NCI-H1304
  IC50: 3010 nM
KU812 cell line
  IC50: 1700 nM
697
  IC50: 99.8 nM
SK-UT-1
  IC50: 1790 nM
GB-1
  IC50: 1940 nM
MFM-223
  IC50: > 5000 nM
LB2241-RCC
  IC50: 1290 nM
NCI-H1417
  IC50: 130 nM
KNS-42
  IC50: > 5000 nM
ES8
  IC50: 360 nM
RPMI-8866
  IC50: 1600 nM
SK-N-FI
  IC50: 3450 nM
KARPAS-45
  IC50: 278 nM
SW872
  IC50: 1810 nM
KM12
  IC50: 1650 nM
CCRF-CEM
  IC50: 747 nM
J-RT3-T3-5
  IC50: 337 nM
LS-513
  IC50: 445 nM
EOL1
  IC50: > 5000 nM
NCI-H2171
  IC50: 1350 nM
OVCAR-4
  IC50: 1130 nM
KARPAS-299
  IC50: 585 nM
SNU1
  IC50: > 5000 nM
DEL
  IC50: 375 nM
KGN
  IC50: 2770 nM
NEC8
  IC50: 135 nM
TE-5
  IC50: 3210 nM
Mo
  IC50: > 5000 nM
HCE-T
  IC50: 872 nM

## CC1(C)CCC(c2ccc(Cl)cc2)=C(CN2CCN(c3ccc(C(=O)NS(=O)(=O)c4ccc(N[C@H](CCN5CCOCC5)CSc5ccccc5)c(S(=O)(=O)C(F)(F)F)c4)cc3)CC2)C1 [NAVITOCLAX]
ATN-1
  IC50: 47.3 nM
SW982
  IC50: > 2000 nM
HCC2218
  IC50: > 2000 nM
D-502MG
  IC50: > 2000 nM
L-428
  IC50: 1010 nM
LB831-BLC
  IC50: > 2000 nM
EW-16
  IC50: 813 nM
KLE
  IC50: > 2000 nM
COLO-829
  IC50: > 2000 nM
SK-MEL-1
  IC50: > 2000 nM
SF-539
  IC50: > 2000 nM
TGBC1TKB
  IC50: 1140 nM
COLO-684
  IC50: > 2000 nM
SHP77
  IC50: > 2000 nM
HCC2157
  IC50: 1190 nM
MZ7-mel
  IC50: > 2000 nM
LB996-RCC
  IC50: > 2000 nM
CAS-1
  IC50: > 2000 nM
KM-H2
  IC50: > 2000 nM
NCI-H1304
  IC50: 462 nM
KU812 cell line
  IC50: > 2000 nM
697
  IC50: 108 nM
SK-UT-1
  IC50: > 2000 nM
GB-1
  IC50: > 2000 nM
MFM-223
  IC50: > 2000 nM
LB2241-RCC
  IC50: > 2000 nM
KNS-42
  IC50: > 2000 nM
ES8
  IC50: > 2000 nM
RPMI-8866
  IC50: > 2000 nM
SCC-15
  IC50: > 2000 nM
SK-N-FI
  IC50: > 2000 nM
KARPAS-45
  IC50: 78.1 nM
SW872
  IC50: > 2000 nM
KM12
  IC50: > 2000 nM
CCRF-CEM
  IC50: 335 nM
J-RT3-T3-5
  IC50: 608 nM
LS-513
  IC50: > 2000 nM
EOL1
  IC50: 6.69 nM
OVCAR-4
  IC50: > 2000 nM
KARPAS-299
  IC50: > 2000 nM
SNU1
  IC50: 1370 nM
DEL
  IC50: 1750 nM
KGN
  IC50: > 2000 nM
NEC8
  IC50: > 2000 nM
TE-5
  IC50: > 2000 nM
Mo
  IC50: > 2000 nM
HCE-T
  IC50: > 2000 nM
SNU-C2B
  IC50: > 2000 nM

## Cc1ccc(C(=O)Nc2ccc(CN3CCN(C)CC3)c(C(F)(F)F)c2)cc1C#Cc1cnc2cccnn12 [PONATINIB]
ATN-1
  IC50: > 512 nM
SW982
  IC50: 300 nM
HCC2218
  IC50: > 512 nM
D-502MG
  IC50: > 512 nM
L-428
  IC50: > 512 nM
LB831-BLC
  IC50: > 512 nM
EW-16
  IC50: > 512 nM
KLE
  IC50: > 512 nM
COLO-829
  IC50: > 512 nM
SK-MEL-1
  IC50: > 512 nM
SF-539
  IC50: > 512 nM
TGBC1TKB
  IC50: > 512 nM
COLO-684
  IC50: > 512 nM
SHP77
  IC50: > 512 nM
HCC2157
  IC50: > 512 nM
MZ7-mel
  IC50: > 512 nM
LB996-RCC
  IC50: > 512 nM
CAS-1
  IC50: 283 nM
KM-H2
  IC50: > 512 nM
NCI-H1304
  IC50: > 512 nM
KU812 cell line
  IC50: 28.5 nM
697
  IC50: 189 nM
SK-UT-1
  IC50: > 512 nM
GB-1
  IC50: 125 nM
MFM-223
  IC50: > 512 nM
LB2241-RCC
  IC50: > 512 nM
NCI-H1417
  IC50: > 512 nM
KNS-42
  IC50: > 512 nM
ES8
  IC50: > 512 nM
RPMI-8866
  IC50: > 512 nM
SCC-15
  IC50: > 512 nM
SK-N-FI
  IC50: > 512 nM
KARPAS-45
  IC50: 489 nM
SW872
  IC50: > 512 nM
KM12
  IC50: 97.4 nM
CCRF-CEM
  IC50: > 512 nM
J-RT3-T3-5
  IC50: > 512 nM
LS-513
  IC50: > 512 nM
EOL1
  IC50: < 2 nM
OVCAR-4
  IC50: 416 nM
KARPAS-299
  IC50: > 512 nM
SNU1
  IC50: > 512 nM
DEL
  IC50: > 512 nM
KGN
  IC50: > 512 nM
NEC8
  IC50: > 512 nM
TE-5
  IC50: > 512 nM
Mo
  IC50: > 512 nM
HCE-T
  IC50: > 512 nM
SNU-C2B
  IC50: > 512 nM
